Results reported in patent US20100305140A1, “BENZIMIDAZOLE DERIVATIVES WHICH ARE TO BE USED AS ANTAGONIST FOR THE CB1-RECEPTOR” (AstraZeneca AB, priority 2006, published 2010).

Tests used:
[1] = target: T1, Human CB1 receptor (hCB1) (Homo sapiens, UniProt P21554); assay: hCB1 receptor binding (3H-CP55,940 displacement); details: human CB1 receptor membranes
T1 construct: purchased Receptor Biology
Method: hCB1 and hCB2 Receptor Binding
Human CB1 receptor from Receptor Biology (hCB1) or human CB2 receptor from BioSignal (hCB2) membranes are thawed at 37° C., passed 3 times through a 25-gauge blunt-end needle, diluted in the cannabinoid binding buffer (50 mM Tris, 2.5 mM EDTA, 5 mM MgCl2, and 0.5 mg/mL BSA fatty acid free, pH 7.4) and aliquots containing the appropriate amount of protein are distributed into 96-well plates. The IC50 of the compounds of the invention at hCB1 and hCB2 are evaluated from 10-point dose-response curves done with ^3H-CP55,940 at 20000 to 25000 dpm per well (0.17-0.21 nM) in a final volume of 300 μl. The total and non-specific binding are determined in the absence and presence of 0.2 μM of HU210 respectively. The plates are vortexed and incubated for 60 minutes at room temperature, filtered through Unifilters GF/B (presoaked in 0.1% polyethyleneimine) with the Tomtec or Packard harvester using 3 mL of wash buffer (50 mM Tris, 5 mM MgCl2, 0.5 mg BSA pH 7.0). The filters are dried for 1 hour at 55° C. The radioactivity (cpm) is counted in a TopCount (Packard) after adding 65 μl/well of MS-20 scintillation liquid.
Based on the above assays, the dissociation constant (Ki) for a particular compound of the invention towards a particular receptor is determined using the following equation: […]

[2] = target: T1, Human CB1 receptor (hCB1); assay: hCB1 GTPγS binding; assay type: biochemical; details: human CB1 receptor membranes, GTPγ35S; for EC50: unit inferred; for Emax: maximal stimulated binding determined with 10 μM Win 55,212-2
Method: hCB1 and hCB2 GTPγS Binding
Human CB1 receptor from Receptor Biology (hCB1) or human CB2 receptor membranes (BioSignal) are thawed at 37° C., passed 3 times through a 25-gauge blunt-end needle and diluted in the GTPγS binding buffer (50 mM Hepes, 20 mM NaOH, 100 mM NaCl, 1 mM EDTA, 5 mM MgCl2, pH 7.4, 0.1% BSA). The EC50 and Emax of the compounds of the invention are evaluated from 10-point dose-response curves done in 300 μl with the appropriate amount of membrane protein and 100000-130000 dpm of GTPg^35S per well (0.11-0.14 nM). The basal and maximal stimulated binding is determined in absence and presence of 1 μM (hCB2) or 10 μM (hCB1) Win 55,212-2 respectively. The membranes are pre-incubated for 5 minutes with 56.25 μM (hCB2) or 112.5 μM (hCB1) GDP prior to distribution in plates (15 μM (hCB2) or 30 μM (hCB1) GDP final). The plates are vortexed and incubated for 60 minutes at room temperature, filtered on Unifilters GF/B (presoaked in water) with the Tomtec or Packard harvester using 3 ml of wash buffer (50 mM Tris, 5 mM MgCl2, 50 mM NaCl, pH 7.0). The filters are dried for 1 hour at 55° C. The radioactivity (cpm) is counted in a TopCount (Packard) after adding 65 μl/well of MS-20 scintillation liquid. Antagonist reversal studies are done in the same way except that (a) an agonist dose-response curve is done in the presence of a constant concentration of antagonist, or (b) an antagonist dose-response curve is done in the presence of a constant concentration of agonist.

T1 sequence (P21554 whole entry): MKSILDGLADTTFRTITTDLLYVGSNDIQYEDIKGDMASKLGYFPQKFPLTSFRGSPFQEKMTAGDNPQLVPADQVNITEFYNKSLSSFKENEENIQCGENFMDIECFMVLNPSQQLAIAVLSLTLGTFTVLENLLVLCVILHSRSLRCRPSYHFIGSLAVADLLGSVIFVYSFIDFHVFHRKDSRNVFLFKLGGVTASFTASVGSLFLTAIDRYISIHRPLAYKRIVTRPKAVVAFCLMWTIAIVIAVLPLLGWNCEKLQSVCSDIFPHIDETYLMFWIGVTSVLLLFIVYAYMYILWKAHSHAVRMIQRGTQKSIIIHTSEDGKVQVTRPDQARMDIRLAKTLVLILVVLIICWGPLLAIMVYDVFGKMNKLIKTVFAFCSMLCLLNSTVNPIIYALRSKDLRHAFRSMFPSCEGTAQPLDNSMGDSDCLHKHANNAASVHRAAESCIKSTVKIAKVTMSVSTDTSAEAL

Row | Structure (SMILES) | Ki [1] | EC50 [2] | Emax [2]
1 | CC(C)(C)c1nc2cc(C(=O)N3CCC(C(=O)NC4CC4)CC3)ccc2n1CC1CCC(F)(F)CC1 | 19.2 nM | 16.7 nM | 115%
2 | Cc1cc(NC(=O)C2CCN(C(=O)c3ccc4c(c3)nc(C(C)(C)C)n4CC3CCC(F)(F)CC3)CC2)no1 | – | 1770 nM | 132%
3 | CC(C)(C)c1nc2cc(C(=O)N3CCC(C(=O)NC4CC4)CC3)ccc2n1CC1CCCCC1 | 23.8 nM | 37.7 nM | 134%
